Measured values taken from patent US20140259223A1, “METHODS FOR PRODUCING CINNAMOLIDE AND/OR DRIMENDIOL” (Keygene N.V., priority 2011, published 2014).

Key:
[1] = system: Bemisia tabaci; experiment: dual-choice insect feeding assay on tomato leaf disks, whiteflies; type: in vivo
Protocol: (§1) The insects used in this study were the silverleaf whitefly Bemisia tabaci (genotype B) and the green peach aphid Myzus persicae. Whiteflies were reared on tomato (Moneymaker cultivar) in a greenhouse at 26° C., at 60% relative humidity with a photoperiod of 16 h light and 8 h dark. To perform the assays, adult flies of both genders were collected from leaves with an aspirator. They were cold-anesthetized at 7° C. in a 3 cm diameter plastic cylinder covered with Parafilm® for 5 min, before being released into the Petri dish at the start of the dual-choice assay, to ensure they would not fly out before the dishes were sealed. Apterous (without wings) aphid adults were collected from Chinese cabbage (Brassica rapa L. subspecies pekinensis), on which they had been reared at room temperature in ambient light. They were collected in 2 ml test tubes and starved for about 30 min before inoculating them in the dishes. […] The assays were carried on for either 18 or 24 h and the feeding insects counted at 30 min, 1 h, 2 h, 6 h, and 18 h for whiteflies and at 30 min, 1 h, 2 h, 6 h, and 24 h for aphids. […] To convert data from the concentration in ethanol, expressed as mg mL^−1, into concentration expressed as mg gFW^−1, the value must be multiplied by 15 (the volume in μL applied on each disk) and divided by 0.034 (mass of leaf disk in grams). […]

[2] = system: Myzus persicae; experiment: dual-choice insect feeding assay on tomato leaf disks, aphids; type: in vivo; settings: for effect on feeding at the lowest concentration used: lowest concentration used (113 μg gFW^−1 for cinnamolide)
Protocol: as §1, with “dishes. In the dual-choice assays, insects were presented with circular tomato leaf areas coated with either 50% ethanol in water (control) or a solution of cinnamolide in 50% ethanol in water (treatment; two disks with each solution). Cinnamolide was firstly dissolved in 96% ethanol at a concentration of 2 mg mL^−1; subsequently an equal volume of water was added bringing the maximum concentration used to 1 mg mL^−1. Further dilutions were performed adding directly one volume of 50% ethanol in water to one volume of the previous concentration. The three concentrations used were therefore 1 mg mL^−1, 500 μg mL^−1 and 250 μg mL^−1.” for “dishes.”

[3] = 450, 225 and 113 μg gFW^−1, 6 h

CC1(C)CCC[C@]2(C)[C@H]3COC(=O)C3=CC[C@@H]12 [cinnamolide]
Antifeedant Index (Al %), dose response [1, 3]: increases with the increasing concentrations applied | attractant (phagostimulant) effect at the lowest concentration used ([1]; lowest concentration used (113 μg gFW^−1)): not seen | Antifeedant Index (Al %), dose response [2, 3]: increases with the increasing concentrations applied | effect on feeding at the lowest concentration used [2]: attractant (phagostimulant) effect

CC1(C)CCC[C@]2(C)[C@@H](C=O)C(C=O)=CC[C@@H]12 [polygodial, reference compound]
effect on feeding at the lowest concentration used [2]: attractant (phagostimulant) effect
